Drawing on patent US9266876B2 (Actelion Pharmaceuticals Ltd., priority 2012, dated 2016), this text covers IC50 for 26 compounds.

One experiment deals with human CXCR3A (Homo sapiens (Human), UniProt P49682). The experiment is described as follows: FLIPR assay. Format: cell-based. The following applies: CHO-K1 cells expressing the human CXCR3A coupled to Galpha(16); CXCL10 agonist 20 nM; Fluo-4-AM fluorescence; mean values if determined several times. The procedure, abridged: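 CHO-K1 cells expressing CXCR3A coupled to Gα16 were loaded with Fluo-4-AM for 1 h in Hepes-buffered HBSS, pH 7.4, with 5 mM probenecid. Compound dilutions were added on the FLIPR, followed by CXCL10 (added as a 20 nM solution). Baseline-subtracted peak fluorescence was fitted to a single-site curve for IC50.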

The target of the next experiment is CXCR3 (Homo sapiens (Human), UniProt P49682). The experiment is described as follows: Receptor internalization assay. The following applies: human whole blood; final CXCL10 concentration 9 nM; 30 min 37° C.; CXCR3 cell surface expression on CD3 positive cells, flow cytometer; read-out: Internalization IC50. Format: cell-based. As to the method:
B): Receptor Internalization Assay:
Stock solutions of test compounds are made up at a concentration of 10 mM in DMSO, and serially diluted in PBS containing 0.5% BSA to concentrations required for inhibition dose response curves. Diluted compounds are then mixed with an equal volume of CXCL10 (Peprotech) diluted in PBS. Anticoagulated venous human whole blood is added to the mixture, which is then incubated in a CO2 incubator at 37° C. to allow for ligand mediated receptor internalization (final CXCL10 concentration is 9 nM). After 30′, the blood is mixed with fluorescently labeled CXCR3 and CD3 specific antibodies (Becton Dickinson) and incubated on ice for 10 minutes. Samples are then mixed with BD FACS Lysing Solution (Becton Dickinson) in order to eliminate red blood cells. After washing the cells with PBS containing 0.5% BSA, the samples are then analyzed in a flow cytometer (FACS Canto II, Becton Dickinson). For data analysis using FACSDiva software (Becton Dickinson), the mean fluorescence corresponding to CXCR3 cell surface expression was determined on CD3 positive cells. The program GraphPad Prism is used to fit the data to a single site dose response curve and to calculate IC50 values.
(In general: In flow cytometry, cells or beads pass a laser one at a time.)

As usually defined, the IC50 is the concentration at which inhibition is half-maximal.

Chain of human CXCR3A (P49682 whole entry): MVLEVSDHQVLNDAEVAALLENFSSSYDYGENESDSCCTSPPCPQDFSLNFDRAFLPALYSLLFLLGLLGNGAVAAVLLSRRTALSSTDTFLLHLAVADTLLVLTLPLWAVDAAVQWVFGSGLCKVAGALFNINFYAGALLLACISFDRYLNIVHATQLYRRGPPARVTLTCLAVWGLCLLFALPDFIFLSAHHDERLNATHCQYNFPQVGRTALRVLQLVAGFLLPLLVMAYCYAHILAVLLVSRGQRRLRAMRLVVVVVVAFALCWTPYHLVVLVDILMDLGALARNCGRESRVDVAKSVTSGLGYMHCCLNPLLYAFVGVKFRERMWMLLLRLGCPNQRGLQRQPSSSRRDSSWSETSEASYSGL
Chain of CXCR3 (P49682 whole entry): as above

In the case of `CC(O)c1nc(-c2nc3ccccc3[nH]2)c(N2CCN(C(=O)Cn3ccc4cccnc43)CC2)s1` (racemic) [Example 43, rac-1-{4-[4-(1H-Benzoimidazol-2-yl)-2-(1-hydroxy-ethyl)-thiazol-5-yl]-piperazin-1-yl}-2-pyrrolo[2,3-b]pyridin-1-yl-ethanone], the IC50 on human CXCR3A came out at 0.055 µM; on CXCR3, 4.09 µM. In the case of `O=C(Cn1cnc2ccccc21)N1CCN(c2scnc2-c2nc3ccccc3[nH]2)CC1` [Example 1, 2-Benzoimidazol-1-yl-1-{4-[4-(1H-benzoimidazol-2-yl)-thiazol-5-yl]-piperazin-1-yl}-ethanone], the IC50 at human CXCR3A is 0.03 µM; at CXCR3 it was 3.08 µM. Take `Cc1nc2ccccc2n1CC(=O)N1CCN(c2scnc2-c2nc3ccccc3[nH]2)CC1` [Example 2, 1-{4-[4-(1H-Benzoimidazol-2-yl)-thiazol-5-yl]-piperazin-1-yl}-2-(2-methyl-benzoimidazol-1-yl)-ethanone]: the concentration for half-maximal inhibition (IC50) at human CXCR3A stood at 0.198 µM; at CXCR3 it was 3.36 µM. For the compound `Cn1c(=O)n(CC(=O)N2CCN(c3scnc3-c3nc4ccccc4[nH]3)CC2)c2ccccc21` [Example 3, 1-(2-{4-[4-(1H-Benzoimidazol-2-yl)-thiazol-5-yl]-piperazin-1-yl}-2-oxo-ethyl)-3-methyl-1,3-dihydro-benzoimidazol-2-one], the IC50 on human CXCR3A stood at 0.015 µM; on CXCR3, 1.2 µM.

In the case of `O=C(Cn1ccc2ccccc21)N1CCN(c2scnc2-c2nc3ccccc3[nH]2)CC1` [Example 4, 1-{4-[4-(1H-Benzoimidazol-2-yl)-thiazol-5-yl]-piperazin-1-yl}-2-indol-1-yl-ethanone], the IC50 on human CXCR3A came to 0.015 µM; at CXCR3, 2.61 µM.

In the case of `O=C(Cn1cnc2cccnc21)N1CCN(c2scnc2-c2nc3ccccc3[nH]2)CC1` [Example 14, 1-{4-[4-(1H-Benzoimidazol-2-yl)-thiazol-5-yl]-piperazin-1-yl}-2-imidazo[4,5-b]pyridin-3-yl-ethanone], the 50% inhibitory concentration (IC50) on human CXCR3A was determined as 0.011 µM; at CXCR3 it was 1.8 µM.

With `O=C(Cn1ccc2cccnc21)N1CCN(c2scnc2-c2nc3ccccc3[nH]2)CC1` [Example 15, 1-{4-[4-(1H-Benzoimidazol-2-yl)-thiazol-5-yl]-piperazin-1-yl}-2-pyrrolo[2,3-b]pyridin-1-yl-ethanone], the IC50 at human CXCR3A amounted to 0.014 µM; at CXCR3, 2.42 µM. On to `C[C@@H]1CN(c2scnc2-c2nc3ccccc3[nH]2)CCN1C(=O)Cn1cnc2cccnc21` [Example 17, 1-{(R)-4-[4-(1H-Benzoimidazol-2-yl)-thiazol-5-yl]-2-methyl-piperazin-1-yl}-2-imidazo[4,5-b]pyridin-3-yl-ethanone], for which the IC50 at human CXCR3A was found to be 0.006 µM; at CXCR3, 0.447 µM. The like results for `CC[C@@H]1CN(c2scnc2-c2nc3ccccc3[nH]2)CCN1C(=O)Cn1ccc2cccnc21` [Example 18, 1-{(R)-4-[4-(1H-Benzoimidazol-2-yl)-thiazol-5-yl]-2-ethyl-piperazin-1-yl}-2-pyrrolo[2,3-b]pyridin-1-yl-ethanone] were, in that order, 0.001 µM and 2.42 µM. With `COC[C@H]1CN(c2scnc2-c2nc3ccccc3[nH]2)CCN1C(=O)Cn1ccc2cccnc21` [Example 19, 1-{(R)-4-[4-(1H-Benzoimidazol-2-yl)-thiazol-5-yl]-2-methoxymethyl-piperazin-1-yl}-2-pyrrolo[2,3-b]pyridin-1-yl-ethanone], the IC50 at human CXCR3A is 0.025 µM; at CXCR3 it was 0.875 µM. With `Cc1cccc2[nH]c(-c3ncsc3N3CCN(C(=O)Cn4ccc5cccnc54)[C@H](C)C3)nc12` [Example 22, 1-{(R)-2-Methyl-4-[4-(4-methyl-1H-benzoimidazol-2-yl)-thiazol-5-yl]-piperazin-1-yl}-2-pyrrolo[2,3-b]pyridin-1-yl-ethanone], the values for the IC50 on human CXCR3A and on CXCR3 were 0.001 µM and 0.568 µM, respectively. As to `C[C@@H]1CN(c2scnc2-c2nc3ccc(Cl)cc3[nH]2)CCN1C(=O)Cn1ccc2cccnc21` [Example 23, 1-{(R)-4-[4-(6-Chloro-1H-benzoimidazol-2-yl)-thiazol-5-yl]-2-methyl-piperazin-1-yl}-2-pyrrolo[2,3-b]pyridin-1-yl-ethanone], the IC50 at human CXCR3A worked out at 0.0002 µM; on CXCR3, 0.181 µM. At human CXCR3A, `C[C@@H]1CN(c2scnc2-c2nc3ccccc3[nH]2)CCN1C(=O)Cc1c[nH]c2ccc(F)cc12` [Example 128, 1-{(R)-4-[4-(1H-Benzoimidazol-2-yl)-thiazol-5-yl]-2-methyl-piperazin-1-yl}-2-(5-fluoro-1H-indol-3-yl)-ethanone] gave an IC50 of 0.047 µM.

As for `C[C@@H]1CN(c2scnc2-c2nc3ccccc3[nH]2)CCN1C(=O)Cc1nc2cc(Cl)ccc2[nH]1` [Example 129, 1-{(R)-4-[4-(1H-Benzoimidazol-2-yl)-thiazol-5-yl]-2-methyl-piperazin-1-yl}-2-(5-chloro-1H-benzoimidazol-2-yl)-ethanone], the IC50 on human CXCR3A stood at 0.109 µM. On to `Cc1ccc2onc(CC(=O)N3CCN(c4scnc4-c4nc5ccccc5[nH]4)C[C@H]3C)c2c1` [Example 131, 1-{(R)-4-[4-(1H-Benzoimidazol-2-yl)-thiazol-5-yl]-2-methyl-piperazin-1-yl}-2-(5-methyl-benzo[d]isoxazol-3-yl)-ethanone], for which, on human CXCR3A, the IC50 was determined as 0.008 µM.

As to `C[C@@H]1CN(c2scnc2-c2nc3ccccc3[nH]2)CCN1C(=O)Cc1csc2ccccc12` [Example 133, 2-Benzo[b]thiophen-3-yl-1-{(R)-4-[4-(1H-benzoimidazol-2-yl)-thiazol-5-yl]-2-methyl-piperazin-1-yl}-ethanone], the IC50 at human CXCR3A worked out at 0.006 µM. At human CXCR3A, `C[C@@H]1CN(c2scnc2-c2nc3ccccc3[nH]2)CCN1C(=O)Cc1csc2ccc(Cl)cc12` [Example 134, 1-{(R)-4-[4-(1H-Benzoimidazol-2-yl)-thiazol-5-yl]-2-methyl-piperazin-1-yl}-2-(5-chloro-benzo[b]thiophen-3-yl)-ethanone] showed an IC50 of 0.115 µM.

On human CXCR3A, `COc1ccc2c(CC(=O)N3CCN(c4scnc4-c4nc5ccccc5[nH]4)C[C@H]3C)coc2c1` [Example 135, 1-{(R)-4-[4-(1H-Benzoimidazol-2-yl)-thiazol-5-yl]-2-methyl-piperazin-1-yl}-2-(6-methoxy-benzofuran-3-yl)-ethanone] returned an IC50 of 0.088 µM. With `C[C@@H]1CN(c2scnc2-c2nc3ccccc3[nH]2)CCN1C(=O)Cc1ccc2c(c1)CCO2` [Example 136, 1-{(R)-4-[4-(1H-Benzoimidazol-2-yl)-thiazol-5-yl]-2-methyl-piperazin-1-yl}-2-(2,3-dihydro-benzofuran-5-yl)-ethanone], the IC50 on human CXCR3A was 0.026 µM. `C[C@@H]1CN(c2scnc2-c2nc3ccccc3[nH]2)CCN1C(=O)Cn1ccc2ncc(Cl)nc21` [Example 140, 1-{(R)-4-[4-(1H-Benzoimidazol-2-yl)-thiazol-5-yl]-2-methyl-piperazin-1-yl}-2-(3-chloro-pyrrolo[2,3-b]pyrazin-5-yl)-ethanone] registered an IC50 on human CXCR3A of 0.006 µM. `C[C@@H]1CN(c2scnc2-c2nc3cc(Cl)ccc3[nH]2)CCN1C(=O)CN1CCc2ccccc21` [Example 145, 1-{(R)-4-[4-(5-Chloro-1H-benzoimidazol-2-yl)-thiazol-5-yl]-2-methyl-piperazin-1-yl}-2-(2,3-dihydro-indol-1-yl)-ethanone] returned an IC50 on human CXCR3A of 0.011 µM. At human CXCR3A, `C[C@@H]1CN(c2scnc2-c2nc3ccccc3[nH]2)CCN1C(=O)Cn1cccc2oc(=O)nc1-2` [Example 156, 4-(2-{(R)-4-[4-(1H-Benzoimidazol-2-yl)-thiazol-5-yl]-2-methyl-piperazin-1-yl}-2-oxo-ethyl)-4H-oxazolo[4,5-b]pyridin-2-one] came in with an IC50 of 0.064 µM. On the same count and under the same terms, the value for `C[C@@H]1CN(c2scnc2-c2nc3ccccc3[nH]2)CCN1C(=O)CN1C(=O)C(=O)c2ccccc21` [Example 157, 1-(2-{(R)-4-[4-(1H-Benzoimidazol-2-yl)-thiazol-5-yl]-2-methyl-piperazin-1-yl}-2-oxo-ethyl)-1H-indole-2,3-dione] was 0.004 µM; that for `C[C@@H]1CN(c2sc(CCC(=O)O)nc2-c2nc3ccccc3[nH]2)CCN1C(=O)Cn1ccc2cccnc21` [Example 224, 3-{4-(1H-Benzoimidazol-2-yl)-5-[(R)-3-methyl-4-(2-pyrrolo[2,3-b]pyridin-1-yl-acetyl)-piperazin-1-yl]-thiazol-2-yl}-propionic acid] was 0.1 µM; that for `Cc1nc(C)n(CC(=O)N2CCN(c3sc(C(F)(F)F)nc3-c3nc4ccc(N5CCCC5=O)cc4[nH]3)C[C@H]2C)n1` [Example 235, 1-[2-(5-{(R)-4-[2-(3,5-Dimethyl-[1,2,4]triazol-1-yl)-acetyl]-3-methyl-piperazin-1-yl}-2-trifluoromethyl-thiazol-4-yl)-3H-benzoimidazol-5-yl]-pyrrolidin-2-one] was 0.03 µM. Compound `O=C(Cn1cnc2cccnc21)N1CCN(c2ncsc2-c2nc3ccccc3[nH]2)CC1` [compound 114, 1-{4-[5-(1H-Benzoimidazol-2-yl)-thiazol-4-yl]-piperazin-1-yl}-2-imidazo[4,5-b]pyridin-3-yl-ethanone, reference compound] showed an IC50 at human CXCR3A of 2.99 µM.
